The target in the first test is T1, human MAGL (His-hMAGL) (Homo sapiens, UniProt Q99685).
T1 construct: made in house; host or cells: Escherichia coli BL21(DE3)
T1 sequence (Q99685 1-303): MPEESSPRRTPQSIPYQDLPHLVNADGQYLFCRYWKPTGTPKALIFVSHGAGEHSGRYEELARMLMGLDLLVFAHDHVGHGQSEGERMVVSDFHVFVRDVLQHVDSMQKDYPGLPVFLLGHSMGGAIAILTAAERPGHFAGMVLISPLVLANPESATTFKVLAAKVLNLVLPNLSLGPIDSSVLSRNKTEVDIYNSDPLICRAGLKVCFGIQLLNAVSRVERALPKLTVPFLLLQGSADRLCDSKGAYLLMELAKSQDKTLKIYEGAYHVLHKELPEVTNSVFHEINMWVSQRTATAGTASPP
As to the kind of experiment: Measurement of MAGL inhibitory activity by mass spectrometry. The test is classed as biochemical. To be noted: 10 μM test compound; substrate 2-arachidonylglycerol, arachidonic acid by RapidFire-mass spectrometry. Summed up: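 His-tagged human MAGL was reacted with 150 μM 2-arachidonylglycerol substrate (stock, added by 5 μL) for 10 min at room temperature, then stopped with formic acid. Arachidonic acid product was quantified by RapidFire–triple-quadrupole MS in negative SRM mode, corrected by arachidonic acid-d8, and converted to percent inhibition.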
In the case of `CS(=O)(=O)Nc1ccc(-c2cccc(N3CC(N4CCN(C(=O)c5nccs5)CC4)CC3=O)c2)cc1` (stereo not drawn) [Example 110, N-(3′-(2-oxo-4-(4-(1,3-thiazol-2-ylcarbonyl)piperazin-1-yl)pyrrolidin-1-yl)biphenyl-4-yl)methanesulfonamide], the inhibition (in general, the drop in the measured response relative to a control, in per cent) at 10 µM is 99%.

For the molecule `O=C(c1nccs1)N1CCN(C2CC(=O)N(c3ccc4c(ccn4-c4ccc(C(F)(F)F)nn4)c3)C2)CC1` (stereo not drawn) [Example 128, 4-(4-(1,3-thiazol-2-ylcarbonyl)piperazin-1-yl)-1-(1-(6-(trifluoromethyl)pyridazin-3-yl)-1H-indol-5-yl)pyrrolidin-2-one], the inhibition at 10 µM was 101%.

On to `Cc1ncccc1-c1cccc(N2CC(N3CCN(C(=O)c4nccs4)CC3)CC2=O)n1` (stereo not drawn) [Example 174, 1-(2′-methyl-2,3′-bipyridin-6-yl)-4-(4-(1,3-thiazol-2-ylcarbonyl)piperazin-1-yl)pyrrolidin-2-one], for which the inhibition at 10 µM is 100%.

Staying with this test, now noted: MAGL inhibitory rate, test compound 10 μM, His-hMAGL, substrate 2-arachidonylglycerol, RapidFire-mass spectrometry.
For `O=C(c1nccs1)N1CCN(C2CC(=O)N(c3sc4cc(F)ccc4c3Cl)C2)CC1` (stereo not drawn) [Example 366, 1-(3-Chloro-6-fluoro-1-benzothiophen-2-yl)-4-(4-(1,3-thiazol-2-ylcarbonyl)piperazin-1-yl)pyrrolidin-2-one], the inhibition at 10 µM turned out to be 100%.

Regarding `O=C1CC(N2CCN(c3ncccn3)CC2)CN1c1ccc2c(ccn2-c2ncc(C(F)(F)F)cn2)c1` (stereo not drawn) [Example 433, 4-(4-(Pyrimidin-2-yl)piperazin-1-yl)-1-(1-(5-(trifluoromethyl)pyrimidin-2-yl)-1H-indol-5-yl)pyrrolidin-2-one], the inhibition at 10 µM amounted to 83%.

Consider `O=C(c1nccs1)N1CCN(C2CC(=O)N(c3ccc4c(c3)CCN4)C2)CC1` (stereo not drawn) [Example 374, 1-(2,3-Dihydro-1H-indol-5-yl)-4-(4-(1,3-thiazol-2-ylcarbonyl)piperazin-1-yl)pyrrolidin-2-one], for which the inhibition at 10 µM turned out to be 81%.

As for `COc1ccccc1-c1cc(N2CC(N3CCN(C(=O)c4nccs4)CC3)CC2=O)cc2cn[nH]c12` (stereo not drawn) [Example 355, 1-(7-(2-methoxyphenyl)-1H-indazol-5-yl)-4-(4-(1,3-thiazol-2-ylcarbonyl)piperazin-1-yl)pyrrolidin-2-one], the inhibition at 10 µM amounted to 98%.

`Cc1cc(F)ccc1-c1cccc(N2CC(N3CCN(C(=O)c4nccs4)CC3)CC2=O)c1` (stereo not drawn) [Example 301, 1-(4′-fluoro-2′-methylbiphenyl-3-yl)-4-(4-(1,3-thiazol-2-ylcarbonyl)piperazin-1-yl)pyrrolidin-2-one]: the inhibition at 10 µM was 104%.

For `Cc1cc(C)cc(-n2ccc3cc(N4CC(N5CCN(C(=O)c6nccs6)CC5)CC4=O)ccc32)c1` (stereo not drawn) [Example 279, 1-(1-(3,5-dimethylphenyl)-1H-indol-5-yl)-4-(4-(1,3-thiazol-2-ylcarbonyl)piperazin-1-yl)pyrrolidin-2-one], the inhibition at 10 µM is 101%.

Consider `COc1ccsc1-c1cccc(N2CC(N3CCN(C(=O)c4nccs4)CC3)CC2=O)c1` (stereo not drawn) [Example 323, 1-(3-(3-methoxy-2-thienyl)phenyl)-4-(4-(1,3-thiazol-2-ylcarbonyl)piperazin-1-yl)pyrrolidin-2-one], for which the inhibition at 10 µM stood at 100%.

In the case of `O=C(c1nccs1)N1CCN(C2CC(=O)N(c3cccc(-c4ccc(Cl)cc4Cl)c3)C2)CC1` (stereo not drawn) [Example 283, 1-(2′,4′-dichlorobiphenyl-3-yl)-4-(4-(1,3-thiazol-2-ylcarbonyl)piperazin-1-yl)pyrrolidin-2-one], the inhibition at 10 µM was 101%.

Turning to `O=C(c1nccs1)N1CCN(C2CC(=O)N(c3ccc(-c4ccsc4)cc3)C2)CC1` (stereo not drawn) [Example 217, 4-(4-(1,3-thiazol-2-ylcarbonyl)piperazin-1-yl)-1-(4-(3-thienyl)phenyl)pyrrolidin-2-one], the inhibition at 10 µM came out at 98%.

Turning to `O=C(c1nccs1)N1CCN(C2CC(=O)N(c3ccc(F)c(-c4ccccc4)c3)C2)CC1` (stereo not drawn) [Example 243, 1-(6-fluorobiphenyl-3-yl)-4-(4-(1,3-thiazol-2-ylcarbonyl)piperazin-1-yl)pyrrolidin-2-one], the inhibition at 10 µM is 100%.

As for `Cc1ccc(-n2ccc3cc(N4CC(N5CCN(C(=O)c6nccs6)CC5)CC4=O)ccc32)cc1` (stereo not drawn) [Example 235, 1-(1-(4-methylphenyl)-1H-indol-5-yl)-4-(4-(1,3-thiazol-2-ylcarbonyl)piperazin-1-yl)pyrrolidin-2-one], the inhibition at 10 µM was found to be 100%.

Consider `O=C(c1nccs1)N1CCN(C2CC(=O)N(c3cccc(-c4ccc(OC(F)(F)F)cc4)c3)C2)CC1` (stereo not drawn) [Example 292, 4-(4-(1,3-thiazol-2-ylcarbonyl)piperazin-1-yl)-1-(4′-(trifluoromethoxy)biphenyl-3-yl)pyrrolidin-2-one], for which the inhibition at 10 µM was 93%.

For the molecule `O=C1Cc2cccc(-c3cccc(N4CC(N5CCN(C(=O)c6nccs6)CC5)CC4=O)c3)c2N1` (stereo not drawn) [Example 222, 7-(3-(2-oxo-4-(4-(1,3-thiazol-2-ylcarbonyl)piperazin-1-yl)pyrrolidin-1-yl)phenyl)-1,3-dihydro-2H-indol-2-one], the inhibition at 10 µM was determined as 98%.

For the molecule `O=C(c1nccs1)N1CCN(C2CC(=O)N(c3ccc(-c4cnn5ccccc45)cc3)C2)CC1` (stereo not drawn) [Example 212, 1-(4-(pyrazolo[1,5-a]pyridin-3-yl)phenyl)-4-(4-(1,3-thiazol-2-ylcarbonyl)piperazin-1-yl)pyrrolidin-2-one], the inhibition at 10 µM was 100%.

`O=C(c1nccs1)N1CCN([C@@H]2CC(=O)N(c3ccc4c(c3)CCN4c3ncc(C(F)(F)F)cn3)C2)CC1` [Example 271, (4R)-4-(4-(1,3-thiazol-2-ylcarbonyl)piperazin-1-yl)-1-(1-(5-(trifluoromethyl)pyrimidin-2-yl)-2,3-dihydro-1H-indol-5-yl)pyrrolidin-2-one]: the inhibition at 10 µM stood at 101%.

As for `O=C(c1cscn1)N1CCN(C2CC(=O)N(c3cccc(-c4ccccc4Cl)c3)C2)CC1` (stereo not drawn) [Example 232, 1-(2′-Chlorobiphenyl-3-yl)-4-(4-(1,3-thiazol-4-ylcarbonyl)piperazin-1-yl)pyrrolidin-2-one (optical isomer)], the inhibition at 10 µM was found to be 99%.

As to `O=C(c1cscn1)N1CCN(C2CC(=O)N(c3ccc4c(ccn4-c4ccc(F)cc4)c3)C2)CC1` (stereo not drawn) [Example 270, 1-(1-(4-fluorophenyl)-1H-indol-5-yl)-4-(4-(1,3-thiazol-4-ylcarbonyl)piperazin-1-yl)pyrrolidin-2-one], the inhibition at 10 µM was determined as 100%.

Take `Cn1ncc2c(-c3cccc(N4CC(N5CCN(C(=O)c6nccs6)CC5)CC4=O)c3)cccc21` (stereo not drawn) [Example 326, 1-(3-(1-methyl-1H-indazol-4-yl)phenyl)-4-(4-(1,3-thiazol-2-ylcarbonyl)piperazin-1-yl)pyrrolidin-2-one]: the inhibition at 10 µM came out at 105%.

Turning to `O=C(c1nccs1)N1CCN(C2CC(=O)N(c3cccc(-c4cnccc4C(F)(F)F)c3)C2)CC1` (stereo not drawn) [Example 371, 4-(4-(1,3-thiazol-2-ylcarbonyl)piperazin-1-yl)-1-(3-(4-(trifluoromethyl)pyridin-3-yl)phenyl)pyrrolidin-2-one], the inhibition at 10 µM was found to be 104%.

On to `Cc1cnccc1-c1cccc(N2CC(N3CCN(C(=O)c4nccs4)CC3)CC2=O)c1` (stereo not drawn) [Example 203, 1-(3-(3-methylpyridin-4-yl)phenyl)-4-(4-(1,3-thiazol-2-ylcarbonyl)piperazin-1-yl)pyrrolidin-2-one], for which the inhibition at 10 µM was found to be 99%.

In the case of `O=C(c1nccs1)N1CCN(C2CC(=O)N(c3cccc(-c4ccsc4C(F)(F)F)c3)C2)CC1` (stereo not drawn) [Example 341, 4-(4-(1,3-thiazol-2-ylcarbonyl)piperazin-1-yl)-1-(3-(2-(trifluoromethyl)-3-thienyl)phenyl)pyrrolidin-2-one], the inhibition at 10 µM was found to be 101%.

Regarding `O=C(c1cscn1)N1CCN([C@@H]2CC(=O)N(c3ccc4c(ccn4-c4cc(C(F)(F)F)ccn4)c3)C2)CC1` [Example 425, (4R)-4-(4-(1,3-Thiazol-4-ylcarbonyl)piperazin-1-yl)-1-(1-(4-(trifluoromethyl)pyridin-2-yl)-1H-indol-5-yl)pyrrolidin-2-one], the inhibition at 10 µM came out at 100%.

Consider `O=C1CC(N2CCN(c3ncccn3)CC2)CN1c1cc(F)cc(Br)c1` (stereo not drawn) [Example 403, 1-(3-Bromo-5-fluorophenyl)-4-(4-(pyrimidin-2-yl)piperazin-1-yl)pyrrolidin-2-one], for which the inhibition at 10 µM was determined as 91%.

In the case of `O=C(c1nccs1)N1CCN(C2CC(=O)N(c3cccc(-c4ccccc4N4CCOCC4)c3)C2)CC1` (stereo not drawn) [Example 306, 1-(2′-(morpholin-4-yl)biphenyl-3-yl)-4-(4-(1,3-thiazol-2-ylcarbonyl)piperazin-1-yl)pyrrolidin-2-one], the inhibition at 10 µM worked out at 102%.

`O=C1CC(N2CCN(c3ncccn3)CC2)CN1c1ccc2c(c1)CCN2C(=O)Cc1ccc(F)cc1` (stereo not drawn) [Example 413, 1-(1-((4-fluorophenyl)acetyl)-2,3-dihydro-1H-indol-5-yl)-4-(4-(pyrimidin-2-yl)piperazin-1-yl)pyrrolidin-2-one]: the inhibition at 10 µM is 94%.

For the molecule `Cc1c(-c2cccc(N3CC(N4CCN(C(=O)c5nccs5)CC4)CC3=O)c2)cnn1C` (stereo not drawn) [Example 324, 1-(3-(1,5-dimethyl-1H-pyrazol-4-yl)phenyl)-4-(4-(1,3-thiazol-2-ylcarbonyl)piperazin-1-yl)pyrrolidin-2-one], the inhibition at 10 µM was found to be 101%.

Consider `Cc1nccnc1-c1cccc(N2CC(N3CCN(C(=O)c4nccs4)CC3)CC2=O)c1` (stereo not drawn) [Example 362, 1-(3-(3-methylpyrazin-2-yl)phenyl)-4-(4-(1,3-thiazol-2-ylcarbonyl)piperazin-1-yl)pyrrolidin-2-one], for which the inhibition at 10 µM came to 92%.

The record behind these values is patent publication US9624170B2, “4-(piperrazin-1-yl)-pyrrolidin-2-one compounds as monoacylglycerol lipase (MAGL) inhibitors” (TAKEDA PHARMACEUTICAL COMPANY LIMITED, priority 2013, dated 2017).
